Results reported in the NIST ThermoML archive (doi:10.1016/j.tca.2014.09.007).
Numbers after ± are expanded uncertainties.

What was measured:
[1] = DTA
[2] = Molar enthalpy of transition or fusion; settings: Crystal; DSC

## CC(C)(Sc1cc(C(C)(C)C)c(O)c(C(C)(C)C)c1)Sc1cc(C(C)(C)C)c(O)c(C(C)(C)C)c1 [probucol]
[1]; Crystal
  Normal melting temperature: 125.90 ± 0.5 °C
[1]; Glass
  Glass transition temperature: 25.00 ± 4 °C
[2]
  Molar enthalpy of transition or fusion: 7.65 ± 0.222 kcal/mol
